# Results published in patent US11083725B2 (priority 2014, dated 2021).
# Test system: NHBE cells
# Test: Biolog metabolic array: substrate use by NHBE cells with or without CA09 infection
# Format: cell-based, human
# Settings: for Substrate use, 590 nm absorbance normalized to zero hour, 1 hr: Biolog PMM2, 1 hr; for Substrate use, 590 nm absorbance normalized to zero hour, 5 hr: Biolog PMM2, 5 hr; for Substrate use, 590 nm absorbance normalized to zero hour, 7 hr: Biolog PMM2, 7 hr
# [1] = Control (uninfected) NHBE cells
# [2] = Virus (CA09, MOI 1) infected NHBE cells
# [3] = Virus (CA09-infected, MOI 1) NHBE cells
# [4] = Virus: CA09-infected NHBE cells, MOI 1, Biolog PMM2
Compound,"590 nm absorbance normalized to zero hour (substrate use), 1 hr [1]","590 nm absorbance normalized to zero hour (substrate use), 2 hr [1]","590 nm absorbance normalized to zero hour (substrate use), 3 hr [1]","590 nm absorbance normalized to zero hour (substrate use), 4 hr [1]","590 nm absorbance normalized to zero hour (substrate use), 6 hr [1]","590 nm absorbance normalized to zero hour (substrate use), 8 hr [1]","590 nm absorbance normalized to zero hour (substrate use), 9 hr [1]","590 nm absorbance normalized to zero hour (substrate use), 10 hr [1]","590 nm absorbance normalized to zero hour (substrate use), 11 hr [1]","Substrate use, 590 nm absorbance normalized to zero hour, 1 hr [1]","Substrate use, 590 nm absorbance normalized to zero hour, 5 hr [1]","Substrate use, 590 nm absorbance normalized to zero hour, 7 hr [1]","590 nm absorbance normalized to zero hour (substrate use), 1 hr [3]","590 nm absorbance normalized to zero hour (substrate use), 2 hr [3]","590 nm absorbance normalized to zero hour (substrate use), 3 hr [3]","590 nm absorbance normalized to zero hour (substrate use), 4 hr [3]","590 nm absorbance normalized to zero hour (substrate use), 6 hr [3]","590 nm absorbance normalized to zero hour (substrate use), 8 hr [3]","590 nm absorbance normalized to zero hour (substrate use), 9 hr [3]","590 nm absorbance normalized to zero hour (substrate use), 10 hr [3]",other results
OCc1ccccc1O[C@@H]1O[C@H](CO)[C@@H](O)[C@H](O)[C@H]1O [Salicin],1.17,0.93,0.96,0.83,0.43,0.67,0.66,0.62,0.62,1.17,0.78,0.69,0.77,1.06,1.26,1.36,1.76,2.01,2.26,2.38,"Substrate use, 590 nm absorbance normalized to zero hour, 1 hr [2]: 0.77; Substrate use, 590 nm absorbance normalized to zero hour, 5 hr [2]: 1.64; Substrate use, 590 nm absorbance normalized to zero hour, 7 hr [2]: 1.87; 590 nm absorbance normalized to zero hour (substrate use), 11 hr [3]: 2.62"
O=c1[nH]cnc2c1ncn2[C@@H]1O[C@H](CO)[C@@H](O)[C@H]1O [Inosine],3.56,5.67,2.78,4.11,2.23,4.46,6.41,6.92,5.14,3.56,4.02,6.19,1.16,1.78,2.23,2.45,3.30,3.88,4.33,3.83,"590 nm absorbance normalized to zero hour (substrate use), 5 hr [3]: 3.06; 590 nm absorbance normalized to zero hour (substrate use), 7 hr [3]: 3.54; 590 nm absorbance normalized to zero hour (substrate use), 11 hr [3]: 4.20; 590 nm absorbance normalized to zero hour (substrate use), 1 hr [4]: 1.16; 590 nm absorbance normalized to zero hour (substrate use), 2 hr [4]: 1.78; 590 nm absorbance normalized to zero hour (substrate use), 3 hr [4]: 2.23; 590 nm absorbance normalized to zero hour (substrate use), 4 hr [4]: 2.45; 590 nm absorbance normalized to zero hour (substrate use), 5 hr [4]: 3.06; 590 nm absorbance normalized to zero hour (substrate use), 6 hr [4]: 3.30; 590 nm absorbance normalized to zero hour (substrate use), 7 hr [4]: 3.54; 590 nm absorbance normalized to zero hour (substrate use), 8 hr [4]: 3.88; 590 nm absorbance normalized to zero hour (substrate use), 9 hr [4]: 4.33; 590 nm absorbance normalized to zero hour (substrate use), 10 hr [4]: 3.83; 590 nm absorbance normalized to zero hour (substrate use), 11 hr [4]: 4.20"
O=C[C@H](O)[C@@H](O)[C@H](O)[C@H](O)CO [D-(+)-Glucose],,,,,,,,,,,,,,,,,,,,,"590 nm absorbance normalized to zero hour (substrate use), 1 hr [4]: 0.82; 590 nm absorbance normalized to zero hour (substrate use), 2 hr [4]: 1.44; 590 nm absorbance normalized to zero hour (substrate use), 3 hr [4]: 1.76; 590 nm absorbance normalized to zero hour (substrate use), 4 hr [4]: 1.96; 590 nm absorbance normalized to zero hour (substrate use), 5 hr [4]: 2.64; 590 nm absorbance normalized to zero hour (substrate use), 6 hr [4]: 2.91; 590 nm absorbance normalized to zero hour (substrate use), 7 hr [4]: 3.23; 590 nm absorbance normalized to zero hour (substrate use), 8 hr [4]: 3.59; 590 nm absorbance normalized to zero hour (substrate use), 9 hr [4]: 4.21; 590 nm absorbance normalized to zero hour (substrate use), 10 hr [4]: 4.43; 590 nm absorbance normalized to zero hour (substrate use), 11 hr [4]: 5.05"
OC[C@@H](O)[C@@H](O[C@@H]1O[C@H](CO)[C@H](O)[C@H](O)[C@H]1O)[C@H](O)[C@@H](O)CO [Lactitol],0.19,0.26,0.31,0.33,0.40,0.47,0.50,0.55,0.62,0.19,0.39,0.44,1.61,2.20,2.54,2.73,3.38,3.76,4.11,4.31,"Substrate use, 590 nm absorbance normalized to zero hour, 1 hr [2]: 1.61; Substrate use, 590 nm absorbance normalized to zero hour, 5 hr [2]: 3.16; Substrate use, 590 nm absorbance normalized to zero hour, 7 hr [2]: 3.55; 590 nm absorbance normalized to zero hour (substrate use), 11 hr [3]: 4.66"
